System: 422866-222-R5-J1-PDC complex spheroids viability
Experiment: Anticancer human tumor 422866-222-R5-J1-PDC patient-derived pancreatic adenocarcinoma cell line growth inhibition [RAS]
Settings: for IC50: curve of first compound; for viability, T/C: stronger effect = lower value
Summary of the method: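 Tumour cells grown as complex spheroids with HUVEC endothelial cells and mesenchymal stem cells, treated with RAS pathway inhibitor combinations. Each agent spans half-log steps from near clinical Cmax, or 10 microM where Cmax is unknown.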
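Note: spheroids exposed to compounds for 7 days.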
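Throughout, for viability, T/C: 100% = DMSO vehicle control viability.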

Nc1ccn(C2OC(CO)C(O)C2(F)F)c(=O)n1 (stereo not given) + CCn1c(-c2cc(N3CCN(C)CC3)cnc2C(C)OC)c2c3cc(ccc31)-c1csc(n1)CC(NC(=O)C1CC1C)C(=O)N1CCCC(N1)C(=O)OCC(C)(C)C2 was tested, and the IC50 (second compound 0.000949 µM) was < 3.16 nM, the IC50 (second compound 0.003 µM) was < 3.16 nM and the IC50 (second compound 0.00949 µM) was < 3.16 nM. The IC50 (second compound 0.03 µM) was < 3.16 nM, the IC50 (second compound 0.0949 µM) was < 3.16 nM and the IC50 (second compound 0.3 µM) was < 3.16 nM. For the same molecule, the viability, T/C (second compound 0.000949 µM, first compound 0.00316 µM) was 30.8%, the viability, T/C (second compound 0.000949 µM, first compound 0.01 µM) was 27.9% and the viability, T/C (second compound 0.000949 µM, first compound 0.0316 µM) was 25.3%. It also gave a viability, T/C (second compound 0.000949 µM, first compound 0.1 µM) of 24.1%, a viability, T/C (second compound 0.000949 µM, first compound 0.316 µM) of 22.2% and a viability, T/C (second compound 0.000949 µM, first compound 1 µM) of 19.4%. For the same molecule, the viability, T/C (second compound 0.003 µM, first compound 0.00316 µM) was 25.6%, the viability, T/C (second compound 0.003 µM, first compound 0.01 µM) was 23.5% and the viability, T/C (second compound 0.003 µM, first compound 0.0316 µM) was 20.5%. The viability, T/C (second compound 0.003 µM, first compound 0.1 µM) was 16.5%, the viability, T/C (second compound 0.003 µM, first compound 0.316 µM) was 18.6% and the viability, T/C (second compound 0.003 µM, first compound 1 µM) was 17.4%. For the same molecule, the viability, T/C (second compound 0.00949 µM, first compound 0.00316 µM) was 20.4%, the viability, T/C (second compound 0.00949 µM, first compound 0.01 µM) was 21.1% and the viability, T/C (second compound 0.00949 µM, first compound 0.0316 µM) was 20.4%. It also gave a viability, T/C (second compound 0.00949 µM, first compound 0.1 µM) of 16.3%, a viability, T/C (second compound 0.00949 µM, first compound 0.316 µM) of 15.2% and a viability, T/C (second compound 0.00949 µM, first compound 1 µM) of 15.8%. The viability, T/C (second compound 0.03 µM, first compound 0.00316 µM) was 18.9%, the viability, T/C (second compound 0.03 µM, first compound 0.01 µM) was 20.1% and the viability, T/C (second compound 0.03 µM, first compound 0.0316 µM) was 17.4%. It also gave a viability, T/C (second compound 0.03 µM, first compound 0.1 µM) of 16.1%, a viability, T/C (second compound 0.03 µM, first compound 0.316 µM) of 15.8% and a viability, T/C (second compound 0.03 µM, first compound 1 µM) of 14.7%. It also gave a viability, T/C (second compound 0.0949 µM, first compound 0.00316 µM) of 19.3%, a viability, T/C (second compound 0.0949 µM, first compound 0.01 µM) of 20.8% and a viability, T/C (second compound 0.0949 µM, first compound 0.0316 µM) of 16.7%. For the same molecule, the viability, T/C (second compound 0.0949 µM, first compound 0.1 µM) was 15.6%, the viability, T/C (second compound 0.0949 µM, first compound 0.316 µM) was 16.6% and the viability, T/C (second compound 0.0949 µM, first compound 1 µM) was 16.4%. For the same molecule, the viability, T/C (second compound 0.3 µM, first compound 0.00316 µM) was 20%, the viability, T/C (second compound 0.3 µM, first compound 0.01 µM) was 20.4% and the viability, T/C (second compound 0.3 µM, first compound 0.0316 µM) was 18.5%. It also gave a viability, T/C (second compound 0.3 µM, first compound 0.1 µM) of 18.7%, a viability, T/C (second compound 0.3 µM, first compound 0.316 µM) of 18.9% and a viability, T/C (second compound 0.3 µM, first compound 1 µM) of 15.4%.

In the case of Nc1ccn(C2OC(CO)C(O)C2(F)F)c(=O)n1 (stereo not given) + C#Cc1c(F)ccc2cc(O)cc(-c3ncc4c(N5CC6CCC(C5)N6)nc(OCC56CCCN5CC(F)C6)nc4c3F)c12, the IC50 (second compound 0.0316 µM) is reported as 113 nM, the IC50 (second compound 0.1 µM) is reported as 29.2 nM and the IC50 (second compound 0.316 µM) is reported as 15.9 nM. The IC50 (second compound 1 µM) was < 3.16 nM, the IC50 (second compound 3.16 µM) was < 3.16 nM and the IC50 (second compound 10 µM) was < 3.16 nM. The viability, T/C (second compound 0.0316 µM, first compound 0.00316 µM) was 90.8%, the viability, T/C (second compound 0.0316 µM, first compound 0.01 µM) was 84.9% and the viability, T/C (second compound 0.0316 µM, first compound 0.0316 µM) was 65.7%. The viability, T/C (second compound 0.0316 µM, first compound 0.1 µM) was 51.1%, the viability, T/C (second compound 0.0316 µM, first compound 0.316 µM) was 42.1% and the viability, T/C (second compound 0.0316 µM, first compound 1 µM) was 34.1%. It also gave a viability, T/C (second compound 0.1 µM, first compound 0.00316 µM) of 108%, a viability, T/C (second compound 0.1 µM, first compound 0.01 µM) of 65.6% and a viability, T/C (second compound 0.1 µM, first compound 0.0316 µM) of 52.4%. The viability, T/C (second compound 0.1 µM, first compound 0.1 µM) was 37.6%, the viability, T/C (second compound 0.1 µM, first compound 0.316 µM) was 39.6% and the viability, T/C (second compound 0.1 µM, first compound 1 µM) was 38.5%. It also gave a viability, T/C (second compound 0.316 µM, first compound 0.00316 µM) of 63.9%, a viability, T/C (second compound 0.316 µM, first compound 0.01 µM) of 49.8% and a viability, T/C (second compound 0.316 µM, first compound 0.0316 µM) of 48.8%. It also gave a viability, T/C (second compound 0.316 µM, first compound 0.1 µM) of 45.6%, a viability, T/C (second compound 0.316 µM, first compound 0.316 µM) of 38.1% and a viability, T/C (second compound 0.316 µM, first compound 1 µM) of 41.9%. It also gave a viability, T/C (second compound 1 µM, first compound 0.00316 µM) of 41.2%, a viability, T/C (second compound 1 µM, first compound 0.01 µM) of 41.3% and a viability, T/C (second compound 1 µM, first compound 0.0316 µM) of 32.4%. It also gave a viability, T/C (second compound 1 µM, first compound 0.1 µM) of 35.9%, a viability, T/C (second compound 1 µM, first compound 0.316 µM) of 33.3% and a viability, T/C (second compound 1 µM, first compound 1 µM) of 25.5%. The viability, T/C (second compound 3.16 µM, first compound 0.00316 µM) was 25.8%, the viability, T/C (second compound 3.16 µM, first compound 0.01 µM) was 29.7% and the viability, T/C (second compound 3.16 µM, first compound 0.0316 µM) was 24.5%. It also gave a viability, T/C (second compound 3.16 µM, first compound 0.1 µM) of 27.7%, a viability, T/C (second compound 3.16 µM, first compound 0.316 µM) of 23.4% and a viability, T/C (second compound 3.16 µM, first compound 1 µM) of 23%. It also gave a viability, T/C (second compound 10 µM, first compound 0.00316 µM) of 24.8%, a viability, T/C (second compound 10 µM, first compound 0.01 µM) of 26.2% and a viability, T/C (second compound 10 µM, first compound 0.0316 µM) of 23.3%. For the same molecule, the viability, T/C (second compound 10 µM, first compound 0.1 µM) was 19.8%, the viability, T/C (second compound 10 µM, first compound 0.316 µM) was 21.6% and the viability, T/C (second compound 10 µM, first compound 1 µM) was 17.8%.

For Nc1ccn(C2OC(CO)C(O)C2(F)F)c(=O)n1 (stereo not given), the viability, T/C (compound 0.00316 µM) was 91.2% [middle of 4 runs], the viability, T/C (compound 0.01 µM) was 82.8% [middle of 4 runs] and the viability, T/C (compound 0.0316 µM) was 72.5% [middle of 4 runs]. The viability, T/C (compound 0.1 µM) was 55% [middle of 4 runs], the viability, T/C (compound 0.316 µM) was 42.9% [middle of 4 runs] and the viability, T/C (compound 1 µM) was 37.8% [middle of 4 runs].

Reference: PubChem BioAssay AID2060901 (Molecular Pharmacology Branch, DTP, NCI, 2025)
